The values that follow come from PMC3141083 (Journal of medicinal chemistry, 2011).

Each structure is given as a SMILES string. Like-named read-outs stand apart in the source and are kept apart here.

The subject of test [1] is A549, DU-145, KB, HCT-8 cancer cell lines. As to the kind of experiment: Cytotoxicity screen, stated over the panel of four cancer cell lines. Type of test: cell-based.
In another test the test system is KB (nasopharyngeal). As to the kind of experiment: Cytotoxicity. Type of test: cell-based. As to conditions: KB cell line.
Where [2] appears, read: read-out: GI50 (all tested cancer cell lines).

As a reminder, the GI50 is the concentration that inhibits growth by half. Turning to `COc1ccc2c3c(c4cc(OC)c(OC)cc4c2c1)C[C@H]1CN(c2ccccc2)CN1C3` [Compound 3f], in test [1] (read-out: average GI50), the GI50 is greater than 20000 nM. `COc1ccc2c3c(c4cc(OC)c(OC)cc4c2c1)C[C@H]1CCN(c2ccccc2)CN1C3` [Compound 10b]: the GI50 in test [1] (setting [2]) was greater than 20000 nM. Turning to `COc1ccc2c3c(c4cc(OC)c(OC)cc4c2c1)C[C@H]1CCN(Cc2ccccc2)CN1C3` [Compound 10d], the GI50 in test [1] (setting [2]) is greater than 20000 nM. On to `COc1ccc2c3c(c4cc(OC)c(OC)cc4c2c1)C[C@H]1COCCN1C3` [Compound 11, (S)-13-Oxa-cryptopleurine], for which the “GI50 KB” value in the test on KB (nasopharyngeal) is recorded as 37 ± 9 nM. On to `COc1ccc2c3c(c4cc(OC)c(OC)cc4c2c1)C[C@H]1CCOCN1C3` [Compound 13, (S)-12-Oxa-cryptopleurine], for which the GI50 in test [1] (setting [2]) was greater than 1000 nM. With `COc1ccc2c3c(c4cc(OC)c(OC)cc4c2c1)C[C@@H]1CCOCN1C3` [Compound 14, (R)-12-Oxa-cryptopleurine], the GI50 in test [1] (setting [2]) was greater than 1000 nM. Turning to `COc1ccc2c3c(c4cc(OC)c(OC)cc4c2c1)C[C@H]1CCCCCN1C3` [Compound 15], the “GI50 KB” value in the test on KB (nasopharyngeal) came out at 102 ± 19 nM. Same read-out and setting: the value for `COc1ccc2c3c(c4cc(OC)c(OC)cc4c2c1)C[C@H]1CCOCCN1C3` [Compound 16] was 68 ± 10 nM; that for `COc1ccc2c3c(c4cc(OC)c(OC)cc4c2c1)C[C@H]1CCCN1C3` [R-antofine, reference compound] was 36 ± 8 nM. Still for that read-out and setting: the value for `COc1ccc2c3c(c4cc(OC)c(OC)cc4c2c1)C[C@H]1CCCCN1C3` [crypto-pleurine, R-cryptopleurine, reference compound] was 1.51 ± 0.33 nM.
